Test results taken from US9902740B2, “Macrocyclic benzodiazepine dimers, conjugates thereof, preparation and uses” (BRISTOL-MYERS SQUIBB COMPANY, priority 2015, dated 2018).
Like-named read-outs stand apart in the source and are kept apart here.

Experiments:
Assay type in all cases: cell-based
[1] = system: H226 human lung cancer cell line; experiment: Cytotoxic activity of dimers against H226 cells; settings: for EC50: Table 5 comparative activities, H226
Description: (§1) H226 is a human lung cancer cell line. N87 is a human gastric cancer cell line. OVCAR3 is a human ovarian cancer cell line. HCT116 is a human colon cancer cell line. HCT116/VM46 is a human colon cancer cell line that is multi-drug and paclitaxel resistant.

[2] = system: N87 human gastric cancer cell line; experiment: Cytotoxic activity of dimers against N87 cells; settings: for IC50: read-out: Cell Line (IC50, nM) N87; for EC50: Table 5 comparative activities, N87
Description: as §1

[3] = system: OVCAR3 human ovarian cancer cell line; experiment: Cytotoxic activity of dimers against OVCAR3 cells; settings: for EC50: Table 5 comparative activities, OVCAR3
Description: as §1

[4] = system: HCT116 human colon cancer cell line; experiment: Cytotoxic activity of dimers against HCT116 cells
Description: as §1

[5] = system: HCT116/VM46 human colon cancer cell line (multi-drug and paclitaxel resistant); experiment: Cytotoxic activity of dimers against HCT116/VM46 cells
Description: as §1

[6] = Table 4, H226 human lung cancer cell line, read-out: Cell Line (IC50, nM) H226
[7] = Table 4, N87 human gastric cancer cell line
[8] = Table 4, OVCAR3 human ovarian cancer cell line, read-out: Cell Line (IC50, nM) OVCAR3
[9] = Homo sapiens, NCI-H226, read-out: Cell Line (IC50, nM) H226
[10] = Homo sapiens, OVCAR-3, read-out: Cell Line (IC50, nM) OVCAR3
[11] = Homo sapiens, HCT-116/VM46, Table 4

| Structure (SMILES) | IC50 [1, 6] | IC50 [2, 7] | IC50 [3, 8] | IC50 ([4]; Table 4) | IC50 ([5]; Table 4) | IC50 [1, 9] | IC50 ([2]; Homo sapiens) | IC50 [3, 10] | IC50 ([4]; HCT-116, Table 4) | IC50 [5, 11] | EC50 [1] | EC50 [2] | EC50 [3] |
| --- | --- | --- | --- | --- | --- | --- | --- | --- | --- | --- | --- | --- | --- |
| COc1ccc(C2=CN3C(=O)c4cc5c(cc4N=C[C@@H]3C2)OCCCOc2cc3c(cc2OCCCCCCCCO5)C(=O)N2C=C(c4ccc(OC)cc4)C[C@H]2C=N3)cc1 [IIc-7] | 0.99 nM | 0.62 nM | 1.8 nM | 0.17 nM | 1.1 nM |  |  |  |  |  |  |  |  |
| C=C1C[C@H]2C=Nc3cc4c(cc3C(=O)N2C1)OCCOCCOCCOc1cc2c(cc1OCCCO4)N=C[C@@H]1CC(=C)CN1C2=O [IIa-13] | 29 nM | 40 nM | 20 nM | 32 nM | 85 nM |  |  |  |  |  |  |  |  |
| CC1=CN2C(=O)c3cc4c(cc3N=C[C@@H]2C1)OCCCOc1cc2c(cc1OCCCCCCCCO4)C(=O)N1C=C(c3ccc(N)cc3)C[C@H]1C=N2 [IId-1] |  |  |  |  |  | 0.66 nM | 1.4 nM | 1.2 nM | 0.14 nM | 1.2 nM |  |  |  |
| Nc1ccc2c(c1)CN1C(=O)c3cc4c(cc3N=C[C@@H]1C2)OCCCOc1cc2c(cc1OCCCCCCCCO4)C(=O)N1Cc3ccccc3C[C@H]1C=N2 [IIb-6] |  |  |  |  |  | 0.21 nM | 0.25 nM | 0.21 nM | 0.016 nM | 0.66 nM |  |  |  |
| Nc1ccc(CN2CCCCOc3cc4c(cc3OCCCOc3cc5c(cc3OCCCC2)C(=O)N2Cc3ccccc3C[C@H]2C=N5)N=C[C@@H]2Cc3ccccc3CN2C4=O)cc1 [IIb-8] | 0.13 nM | 0.27 nM | 0.25 nM | 0.015 nM | 1.2 nM |  |  |  |  |  |  |  |  |
| COCCOc1ccc(C2=CN3C(=O)c4cc5c(cc4N=C[C@@H]3C2)OCCCOc2cc3c(cc2OCCCCCCCCCCCCO5)C(=O)N2C=C(c4ccc(OCCOC)cc4)C[C@H]2C=N3)cc1 [IIc-3] | 32 nM | 29 nM | 104 nM | 13 nM | 58 nM |  |  |  |  |  |  |  |  |
| O=C1c2cc3c(cc2N=C[C@@H]2CCCN12)OCCCOc1cc2c(cc1OCCCCCCCCCO3)C(=O)N1CCC[C@H]1C=N2 [IIa-3] | 8.7 nM | 8.3 nM | 7.3 nM |  |  |  |  |  |  |  | 8.7 nM | 8.3 nM | 7.3 nM |
| O=C1c2cc3c(cc2N=C[C@@H]2CCCN12)OCCCOc1cc2c(cc1OCCCC/C=C/CCCCO3)C(=O)N1CCC[C@H]1C=N2 [IIa-9] | 12 nM | 13 nM | 12 nM |  |  |  |  |  |  |  | 12 nM | 13 nM | 12 nM |
| O=C1c2cc3c(cc2N=C[C@@H]2CCCN12)OCCCCCOc1cc2c(cc1OCCCCCCCCCCCCO3)C(=O)N1CCC[C@H]1C=N2 [IIa-8] | 10 nM | 15 nM | 9.9 nM |  |  |  |  |  |  |  | 10 nM | 15 nM | 9.9 nM |
| C=C1C[C@H]2C=Nc3cc4c(cc3C(=O)N2C1)OCCCC/C=C/CCCCOc1cc2c(cc1OCCCO4)N=C[C@@H]1CC(=C)CN1C2=O [IIa-10] | 2 nM | 2.3 nM | 0.47 nM |  | 11 nM |  |  |  |  |  |  |  |  |
| O=C1c2cc3c(cc2N=C[C@@H]2Cc4ccccc4N12)OCCCOc1cc2c(cc1OCCCCCCCCCCO3)C(=O)N1c3ccccc3C[C@H]1C=N2 [IIb-3] | 5.9 nM | 11 nM | 3.5 nM |  | 13 nM |  |  |  |  |  |  |  |  |
| O=C1c2cc3c(cc2N=C[C@@H]2CCCN12)OCCCOc1cc2c(cc1OCCCCCCCO3)C(=O)N1CCC[C@H]1C=N2 [IIa-1] | 8.1 nM | 4.6 nM | 3.4 nM |  | 74 nM |  |  |  |  |  | 8.1 nM | 4.6 nM | 3.4 nM |
| O=C1c2cc3c(cc2N=C[C@@H]2CCCN12)OCCCOc1cc2c(cc1OCCCCCCCCO3)C(=O)N1CCC[C@H]1C=N2 [IIa-2] | 1.6 nM | 2.7 nM | 1.2 nM |  |  |  |  |  |  |  | 1.6 nM | 2.7 nM | 1.2 nM |
| O=C1c2cc3c(cc2N=C[C@@H]2CCCN12)OCCCOc1cc2c(cc1OCCCCCCCCCCCCO3)C(=O)N1CCC[C@H]1C=N2 [IIa-6] | 110 nM | 310 nM | 140 nM |  |  |  |  |  |  |  | 110 nM | 310 nM | 140 nM |
| O=C1c2cc3c(cc2N=C[C@@H]2Cc4ccccc4CN12)OCCCOc1cc2c(cc1OCCCCCCCCCCO3)C(=O)N1Cc3ccccc3C[C@H]1C=N2 [IIb-2] | 3 nM | 2.5 nM | 1.3 nM |  | 17 nM |  |  |  |  |  |  |  |  |
| C=C1C[C@H]2C=Nc3cc4c(cc3C(=O)N2C1)OCCCCCCCCOc1cc2c(cc1OCCCO4)N=C[C@@H]1CC(=C)CN1C2=O [IIa-12] | 0.32 nM | 0.89 nM | 0.52 nM |  | 4.8 nM |  |  |  |  |  |  |  |  |
